molecular target: MAPK14 (human) (UniProt Q16539); assay: Inhibition of MAPK14 Kinase Activity
Sequence (Q16539 whole entry, looked up): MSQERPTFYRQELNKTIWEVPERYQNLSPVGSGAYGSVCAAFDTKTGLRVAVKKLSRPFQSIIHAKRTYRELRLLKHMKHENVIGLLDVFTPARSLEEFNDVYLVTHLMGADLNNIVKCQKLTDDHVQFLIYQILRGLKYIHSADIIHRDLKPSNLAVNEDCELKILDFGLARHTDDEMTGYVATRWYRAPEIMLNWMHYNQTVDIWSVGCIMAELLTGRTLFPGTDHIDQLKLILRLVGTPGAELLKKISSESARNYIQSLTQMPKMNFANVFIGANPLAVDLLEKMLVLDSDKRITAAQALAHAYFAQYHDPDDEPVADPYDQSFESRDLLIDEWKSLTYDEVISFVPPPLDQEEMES

IC50, ≤ 10 µM:
O=C1CCC(Sc2cc(Cl)cc(Cl)c2)CN1C1C(Cl)CCCC1Cl (configuration not stated)
O=C(CNc1cc(Cl)c(N2CC(Cc3ccc(F)cc3F)CCC2=O)c(Cl)c1)NCCO (configuration not stated)
O=C1CCC(Oc2ccc3ccccc3c2)CN1C1C(Cl)CCCC1Cl (configuration not stated)
O=C1CCC(Sc2ccccc2Cl)CN1C1C(Cl)CCCC1Cl (configuration not stated)
CN1CC(=O)N(c2c(Cl)cccc2Cl)CC1Cc1ccc(F)cc1F (configuration not stated)
Nc1ccc(Cl)c(N2CC(Cc3ccc(F)cc3F)CNC2=O)c1Cl (configuration not stated)
O=C(O)c1cc(Cl)c(N2CC(Cc3ccc(F)cc3F)CCC2=O)c(Cl)c1 (configuration not stated)
CNc1ccc(Cl)c(N2CC(Cc3ccc(F)cc3F)OCC2=O)c1Cl (configuration not stated)
O=C1CCC(Cc2ccc(F)cc2F)CN1c1c(Cl)cc([N+](=O)[O-])cc1Cl (configuration not stated)
O=C(Cc1ccccc1)Nc1cc(Cl)c(N2CC(Cc3ccc(F)cc3F)SCC2=O)c(Cl)c1 (configuration not stated)
CNc1cc(Cl)c(N2CC(Cc3ccc(F)cc3F)CCC2=O)c(Cl)n1 (configuration not stated)
O=C1CCC(Oc2ccc3ccccc3c2)CN1c1c(Cl)csc1Cl (configuration not stated)
Cn1nc(C(C)(C)C)cc1NC(=O)CCc1ccccc1CC1CCC(=O)N(c2c(Cl)cccc2Cl)C1 (configuration not stated)
Cc1cc(CCCCC(=O)O)cc(C)c1N1CC(Cc2ccc(F)cc2F)CCC1=O (configuration not stated)
CN1CC(Cc2ccc(F)cc2)CN(c2c(Cl)cccc2Cl)C1=O (configuration not stated)
O=C1CCC(Sc2ccc(F)cc2F)CN1C1C(Cl)CCC(CO)C1Cl (configuration not stated)
CC(=O)Nc1ccc(Cl)c(N2CC(Cc3ccc(F)cc3F)CNC2=O)c1Cl (configuration not stated)
Cc1cc(C#CCCCO)cc(C)c1N1CC(Cc2ccc(F)cc2F)CCC1=O (configuration not stated)
CC(=O)Nc1cnc(Cl)c(N2CC(Cc3ccc(F)cc3F)CCC2=O)c1Cl (configuration not stated)
O=C(Cc1ccccc1)Nc1ccc(Cl)c(N2CC(Oc3ccc(F)cc3F)CCC2=O)c1Cl (configuration not stated)
O=C1CCC(Sc2ccc(Cl)cc2Cl)CN1c1c(Cl)csc1Cl (configuration not stated)
O=C(CCCO)Nc1cc(Cl)c(N2CC(Cc3ccc(F)cc3F)CCC2=O)c(Cl)c1 (configuration not stated)
O=C1CCC(Oc2cccc3ccccc23)CN1c1c(Cl)cncc1Cl (configuration not stated)
CNc1sc(Cl)c(N2CC(Sc3ccc(F)cc3F)CCC2=O)c1Cl (configuration not stated)
CS(=O)(=O)Nc1cc(Cl)c(N2CC(Cc3ccc(F)cc3F)CCC2=O)c(Cl)c1 (configuration not stated)
O=C1CCC(Cc2cc(F)cc(F)c2)CN1c1c(Cl)ccnc1Cl (configuration not stated)
O=C1CCC(Cc2ccc(F)cc2F)CN1c1c(Cl)cc(NC2CCNCC2)cc1Cl (configuration not stated)
O=C1OCC(Cc2ccccc2F)CN1c1c(Cl)cccc1Cl (configuration not stated)
O=C1CCC(Sc2cc(F)cc(F)c2)CN1c1c(Cl)ccnc1Cl (configuration not stated)
COc1ccc(CC2CCC(=O)N(C3C(Cl)CCCC3Cl)C2)cc1 (configuration not stated)
CN(C)Cc1cc(Cl)c(N2CC(Cc3ccc(F)cc3F)CCC2=O)c(Cl)c1 (configuration not stated)
Cc1cc(Br)cc(C)c1N1CC(Cc2ccc(F)cc2F)CCC1=O (configuration not stated)
CNc1cc(Cl)c(N2CC(Cc3ccc(F)cc3F)CCC2=O)c(Cl)c1 (configuration not stated)
O=C1CCC(Cc2ccccc2)CN1c1c(Cl)ccnc1Cl (configuration not stated)
Cc1cc(C)cc(CC2CCC(=O)N(c3c(Cl)cncc3Cl)C2)c1 (configuration not stated)
Nc1ccc(Cl)c(N2CC(Cc3ccc(F)cc3F)OCC2=O)c1Cl (configuration not stated)
Cc1ccc(SC2CCC(=O)N(c3c(Cl)ccnc3Cl)C2)cc1 (configuration not stated)
O=C1CCC(Oc2ccccc2)CN1c1c(Cl)csc1Cl (configuration not stated)
O=C1CCC(Cc2ccc3ccccc3c2)CN1C1C(Cl)CCCC1Cl (configuration not stated)
O=C(NCc1ccccc1)NCc1ccccc1CC1CCC(=O)N(c2c(Cl)cccc2Cl)C1 (configuration not stated)
Nc1sc(Cl)c(N2CC(Sc3ccc(F)cc3F)CCC2=O)c1Cl (configuration not stated)
CC(=O)Nc1ccc(Cl)c(N2CC(Sc3ccc(F)cc3F)CCC2=O)c1Cl (configuration not stated)
O=C1CCC(Oc2ccc(F)cc2F)CN1c1c(Cl)cc(CO)cc1Cl (configuration not stated)
O=C1CSC(Cc2ccc(F)cc2F)CN1c1c(Cl)cc(O)cc1Cl (configuration not stated)
Cc1cc(C(=O)NCCCC(=O)O)cc(C)c1N1CC(Cc2ccc(F)cc2F)CCC1=O (configuration not stated)
Cc1ccc(CC2CCC(=O)N(c3c(Cl)cncc3Cl)C2)c(C)c1 (configuration not stated)
O=C1CCC(Cc2ccccc2)CN1c1c(F)cccc1F (configuration not stated)
O=C1CCC(Oc2ccc(F)cc2)CN1C1C(Cl)CCCC1Cl (configuration not stated)
Nc1ncc(Cl)c(N2CC(Sc3ccc(F)cc3F)CCC2=O)c1Cl (configuration not stated)
CC(=O)Nc1ncc(Cl)c(N2CC(Oc3ccc(F)cc3F)CCC2=O)c1Cl (configuration not stated)
O=C1CCC(Oc2ccccc2Cl)CN1c1c(Cl)cccc1Cl (configuration not stated)
C[C@H]1C[C@@H](Cc2ccc(F)cc2F)CN(c2c(Cl)cccc2Cl)C1=O
O=C1CCC(Sc2cccc3ccccc23)CN1c1c(Cl)csc1Cl (configuration not stated)
O=C1CCC(Oc2ccccc2Cl)CN1c1c(Cl)csc1Cl (configuration not stated)
Cc1cc(C)cc(CC2COC(=O)N(c3c(Cl)cccc3Cl)C2)c1 (configuration not stated)
NNC(=O)CNc1cc(Cl)c(N2CC(Cc3ccc(F)cc3F)CCC2=O)c(Cl)c1 (configuration not stated)
Nc1cc(Cl)c(N2CC(Sc3ccc(F)cc3F)CCC2=O)c(Cl)n1 (configuration not stated)
O=C1CCC(Oc2cccc3ccccc23)CN1c1c(Cl)ccnc1Cl (configuration not stated)
O=C1CCC(Oc2cc(Cl)cc(Cl)c2)CN1c1c(Cl)csc1Cl (configuration not stated)
O=C1CCC(Cc2ccccc2)CN1c1c(Cl)csc1Cl (configuration not stated)
O=C1CCC(Sc2ccc(Cl)cc2Cl)CN1c1c(Cl)cncc1Cl (configuration not stated)
O=C1SCC(Cc2ccc(F)cc2F)CN1c1c(Cl)ccc(O)c1Cl (configuration not stated)
Cc1cc(C)cc(CC2CN(c3c(Cl)cccc3Cl)C(=O)CO2)c1 (configuration not stated)
CC(=O)Nc1ccc(Cl)c(N2CC(Cc3ccc(F)cc3F)OCC2=O)c1Cl (configuration not stated)
O=C1[C@H](O)C[C@@H](Cc2ccc(F)cc2F)CN1c1c(Cl)cccc1Cl
CS(=O)(=O)NCCNc1cc(Cl)c(N2CC(Cc3ccc(F)cc3F)CCC2=O)c(Cl)c1 (configuration not stated)
O=C1CCC(Sc2ccccc2Cl)CN1c1c(Cl)csc1Cl (configuration not stated)
Cc1cc(C)cc(CC2CN(C)C(=O)N(c3c(Cl)cccc3Cl)C2)c1 (configuration not stated)
N[C@@H](CO)C(=O)Nc1cc(Cl)c(N2CC(Cc3ccc(F)cc3F)CCC2=O)c(Cl)c1 (some centres not stated)
CC(=O)Nc1cc(Cl)c(N2CC(Cc3ccc(F)cc3F)COC2=O)c(Cl)c1 (configuration not stated)
Cc1cc(C)cc(CC2CCC(=O)N(C3C(Cl)CCCC3Cl)C2)c1 (configuration not stated)
CCOC(=O)CCCNC(=O)c1cc(C)c(N2CC(Cc3ccc(F)cc3F)CCC2=O)c(C)c1 (configuration not stated)
O=C1OCCN1c1cc(Cl)c(N2CC(Cc3ccc(F)cc3F)CCC2=O)c(Cl)c1 (configuration not stated)
Cc1cccc(C)c1N1C[C@@H](N(CCO)S(=O)(=O)c2ccc(F)cc2F)CCC1=O
O=C1CCC(Sc2ccccc2F)CN1c1c(Cl)cccc1Cl (configuration not stated)
COc1ccc(CC2CCC(=O)N(c3c(Cl)cccc3Cl)C2)cc1 (configuration not stated)
O=C1CSC(Cc2ccc3ccccc3c2)CN1c1c(Cl)cccc1Cl (configuration not stated)
O=C1CCC(Cc2ccc3ccccc3c2)CN1c1c(Cl)cncc1Cl (configuration not stated)
CC(=O)Nc1cc(Cl)c(N2CC(Oc3ccc(F)cc3F)CCC2=O)c(Cl)c1 (configuration not stated)
O=C1CCC(Cc2ccc(F)cc2F)CN1c1c(Cl)ccnc1Cl (configuration not stated)
O=C1CCC(Sc2cccc3ccccc23)CN1c1c(Cl)cncc1Cl (configuration not stated)
O=C1CCC(Oc2cc(F)cc(F)c2)CN1C1C(Cl)CCCC1Cl (configuration not stated)
Cc1cc(C(=O)O)cc(C)c1N1CC(Cc2ccc(F)cc2F)CNC1=O (configuration not stated)
CN1CCN(c2cc(Cl)c(N3CC(Cc4ccc(F)cc4F)CCC3=O)c(Cl)c2)CC1 (configuration not stated)
Cc1ccc(CC2CCC(=O)N(c3c(Cl)csc3Cl)C2)cc1 (configuration not stated)
O=C1CCC(Cc2ccc(Cl)cc2)CN1c1c(Cl)cccc1Cl (configuration not stated)
COc1ccccc1CC1CN(C)C(=O)N(c2c(Cl)cccc2Cl)C1 (configuration not stated)
C[C@@H]1C[C@H](Cc2ccc(F)cc2F)CN(c2c(Cl)cc(N)cc2Cl)C1=O
O=C1SCC(Cc2ccccc2Cl)CN1c1c(Cl)cccc1Cl (configuration not stated)
O=C1CCC(Sc2ccc(F)cc2F)CN1c1c(Cl)cc(O)cc1Cl (configuration not stated)
NC1CCC(Cl)C(N2CC(Sc3ccc(F)cc3F)CCC2=O)C1Cl (configuration not stated)
Cc1ccc2ccccc2c1N1CC(Cc2ccc(F)cc2F)CCC1=O (configuration not stated)
O=C1SCC(Cc2ccccc2F)CN1c1c(Cl)cccc1Cl (configuration not stated)
COc1ccccc1SC1CCC(=O)N(C2C(Cl)CCCC2Cl)C1 (configuration not stated)
O=C1CCC(Cc2ccc(F)cc2)CN1c1c(Cl)cccc1Cl (configuration not stated)
O=C1CCC(Sc2cc(F)cc(F)c2)CN1c1c(Cl)cncc1Cl (configuration not stated)
Nc1sc(Cl)c(N2CC(Oc3ccc(F)cc3F)CCC2=O)c1Cl (configuration not stated)
Cc1ccc(CC2COC(=O)N(c3c(Cl)cccc3Cl)C2)cc1 (configuration not stated)
O=C1COC(Cc2ccc(F)cc2F)CN1c1c(Cl)ccc(CO)c1Cl (configuration not stated)
O=C(Cc1ccccc1)Nc1cc(Cl)c(N2CC(Sc3ccc(F)cc3F)CCC2=O)c(Cl)c1 (configuration not stated)
O=C1CCC(Oc2cc(F)cc(F)c2)CN1c1c(Cl)ccnc1Cl (configuration not stated)
CC(=O)Nc1ccc(Cl)c(N2CC(Cc3ccc(F)cc3F)CSC2=O)c1Cl (configuration not stated)
NC1CCC(Cl)C(N2CC(Cc3ccc(F)cc3F)CCC2=O)C1Cl (configuration not stated)
O=C1CCC(Cc2cc(Cl)cc(Cl)c2)CN1C1C(Cl)CCCC1Cl (configuration not stated)
Cc1ccc(SC2CCC(=O)N(c3c(Cl)cncc3Cl)C2)c(C)c1 (configuration not stated)
Cc1ccc(SC2CCC(=O)N(C3C(Cl)CCCC3Cl)C2)cc1 (configuration not stated)
Cc1cc(C)cc(CC2CNC(=O)N(c3c(Cl)cccc3Cl)C2)c1 (configuration not stated)
Cc1ccccc1CC1CCC(=O)N(c2c(Cl)cccc2Cl)C1 (configuration not stated)
Cc1cccc(C)c1N1C[C@@H](N(C)S(=O)(=O)c2ccc(F)cc2F)CCC1=O
O=C(Cc1ccccc1)Nc1ccc(Cl)c(N2CC(Cc3ccc(F)cc3F)CCC2=O)c1Cl (configuration not stated)
CC(=O)Nc1ccc(Cl)c(N2CC(Cc3ccc(F)cc3F)CCC2=O)c1 (configuration not stated)
Cc1cc(C#CCCN2CCOCC2)cc(C)c1N1CC(Cc2ccc(F)cc2F)CCC1=O (configuration not stated)
